Where two headings read alike, the source gives them in different places. Values belong to the compound of their own block, whether it stands above or below them.
How the values were obtained:
[1] = test system: hematopoietic stem/progenitor cells (HSPCs); assay: HSPC mobilization into peripheral blood, colony forming unit (CFU) assay; details: mice; for No. CFU (×10^3)/mL ± SD, 0.25 hr: 0.25 hr post dose (TABLE 5)
VLA-4 (a4b1) = VLA-4 (a4b1) (Homo sapiens (Human), UniProt P05556+P13612); assay: sVCAM flow cytometry cell-based assay (inhibition of soluble VCAM-1 binding to G2 ALL cells);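 further: compounds at 0.1 to 1000 nM preincubated 30 min with G2 ALL cells, then VCAM/Fc added for 30 min, bound VCAM-1 detected by PE secondary antibody, percent binding cells by flow cytometry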
Chain of VLA-4 (a4b1) (P13612 34-1032): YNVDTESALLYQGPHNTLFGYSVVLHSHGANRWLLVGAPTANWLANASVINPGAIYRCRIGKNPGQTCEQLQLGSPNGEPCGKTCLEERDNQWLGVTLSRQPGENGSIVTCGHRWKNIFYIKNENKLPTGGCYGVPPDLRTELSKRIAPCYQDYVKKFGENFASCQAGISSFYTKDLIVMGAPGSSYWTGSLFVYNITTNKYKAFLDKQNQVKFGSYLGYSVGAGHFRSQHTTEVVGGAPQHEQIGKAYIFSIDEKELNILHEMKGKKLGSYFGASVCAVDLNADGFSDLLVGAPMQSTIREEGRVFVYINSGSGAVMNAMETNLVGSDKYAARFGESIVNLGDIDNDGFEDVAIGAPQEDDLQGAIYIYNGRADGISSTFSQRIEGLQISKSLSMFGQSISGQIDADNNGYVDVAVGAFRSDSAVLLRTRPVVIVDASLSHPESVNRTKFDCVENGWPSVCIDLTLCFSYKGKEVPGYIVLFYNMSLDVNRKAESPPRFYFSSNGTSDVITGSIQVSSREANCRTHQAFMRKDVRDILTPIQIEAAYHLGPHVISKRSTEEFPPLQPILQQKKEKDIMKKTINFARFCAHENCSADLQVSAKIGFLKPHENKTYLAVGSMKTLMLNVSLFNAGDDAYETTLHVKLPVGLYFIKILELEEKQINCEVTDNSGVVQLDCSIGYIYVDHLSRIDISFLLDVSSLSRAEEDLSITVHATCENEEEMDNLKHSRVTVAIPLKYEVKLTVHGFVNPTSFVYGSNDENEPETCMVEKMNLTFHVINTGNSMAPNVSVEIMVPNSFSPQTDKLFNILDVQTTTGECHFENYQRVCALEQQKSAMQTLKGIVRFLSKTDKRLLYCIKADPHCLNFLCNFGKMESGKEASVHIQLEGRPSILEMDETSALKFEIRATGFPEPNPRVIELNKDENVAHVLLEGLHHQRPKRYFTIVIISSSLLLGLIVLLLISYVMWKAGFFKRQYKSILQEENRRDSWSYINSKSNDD
Chain of VLA-4 (a4b1) (P05556 21-798): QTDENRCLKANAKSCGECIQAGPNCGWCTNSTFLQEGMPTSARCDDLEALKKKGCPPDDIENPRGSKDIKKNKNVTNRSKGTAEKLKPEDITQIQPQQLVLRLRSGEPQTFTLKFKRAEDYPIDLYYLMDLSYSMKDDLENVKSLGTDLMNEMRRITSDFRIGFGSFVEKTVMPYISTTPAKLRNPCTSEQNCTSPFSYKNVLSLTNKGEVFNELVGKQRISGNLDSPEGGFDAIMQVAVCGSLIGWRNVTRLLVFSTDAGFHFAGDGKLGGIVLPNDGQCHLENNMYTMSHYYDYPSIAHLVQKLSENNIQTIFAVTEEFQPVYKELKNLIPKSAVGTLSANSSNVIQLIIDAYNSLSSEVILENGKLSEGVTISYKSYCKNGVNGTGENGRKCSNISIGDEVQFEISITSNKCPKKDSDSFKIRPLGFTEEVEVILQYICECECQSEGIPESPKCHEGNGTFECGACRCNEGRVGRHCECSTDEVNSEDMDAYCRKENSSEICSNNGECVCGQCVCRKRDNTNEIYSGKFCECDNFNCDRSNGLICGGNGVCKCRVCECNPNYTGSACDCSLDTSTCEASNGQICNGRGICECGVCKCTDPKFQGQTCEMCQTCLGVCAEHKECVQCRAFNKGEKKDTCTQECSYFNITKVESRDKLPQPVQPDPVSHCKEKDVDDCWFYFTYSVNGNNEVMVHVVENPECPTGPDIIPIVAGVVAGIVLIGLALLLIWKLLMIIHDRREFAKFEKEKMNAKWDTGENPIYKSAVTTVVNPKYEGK
Experimental: VLA-4 (a4b1) inhibitor compounds were tested for their ability to inhibit the binding of soluble VCAM-1 to human G2 acute lymphoblastic leukemia (ALL) cells. Briefly, G2 ALL cells are pre-incubated with increasing concentrations (0.1 to 1000 nM) of compounds for 30 minutes. Soluble VCAM/Fc chimera protein (R & D systems) is then added to the mixture and the cells incubated for an additional 30 minutes. Afterwards, cells are washed and VCAM-1 is detected using a PE-conjugated secondary polyclonal antibody. In each experiment, an aliquot of cells are stained with isotype control antibodies to serve as a negative control. The percentage of VCAM-1 binding cells was then determined by flow cytometry.

[2] = inhibition of sVCAM-1 binding to human G2 ALL cells (TABLE 3), read-out: SVCAM-1, IC50
[3] = single s.c. injection, peripheral blood
[4] = single s.c. injection, peripheral blood, 2 hr post dose (TABLE 5)
[5] = single s.c. injection, peripheral blood, 4 hr post dose (TABLE 5)
[6] = as listed in TABLE 5, read-out: sVCAM IC50

SMILES: c1cc(CN2CCCNCCNCCCNCC2)ccc1CN1CCCNCCNCCCNCC1 [AMD3100, plerixafor]
No. CFU (×10^3)/mL ± SD, 2 hr ([1]; single dose alone or in combination with AMD3100 (5 mg/kg s.c.), peripheral blood, 2 hr (TABLE 14)): 3.42 ± 1.42 (×10^3)/mL
No. CFU (×10^3)/mL ± SD, 3 hr ([1]; single dose alone or in combination with AMD3100 (5 mg/kg s.c.), peripheral blood, 3 hr (TABLE 14)): 5.08 ± 2.32 (×10^3)/mL
No. CFU (×10^3)/mL ± SD, 5 hr ([1]; single dose alone or in combination with AMD3100 (5 mg/kg s.c.), peripheral blood, 5 hr (TABLE 14)): 2.38 ± 0.73 (×10^3)/mL

IC50 (VLA-4 (a4b1); as listed in TABLE 13, for the VLA-4 inhibitor alone, read-out: sVCAM IC50): 47 nM
IC50 (VLA-4 (a4b1); [2]): 47.1 nM
SMILES: O=C(O)[C@H](Cc1ccc(OC(=O)N2CCCC2)cc1)NC(=O)[C@@H]1CCCN1S(=O)(=O)c1ccccc1 [BOP, (N-benzenesulfonyl)-L-prolyl-L-O-(1-pyrrolidinylcarbonyl)tyrosine]
HSPC mobilization, result in words ([1]; single dose): rapid but transient mobilization of HSPCs but are returning to baseline by 2 hours

IC50 (VLA-4 (a4b1); as listed in TABLE 20, read-out: sVCAM IC50): 118 nM
IC50 (VLA-4 (a4b1); [2]): 118 nM
SMILES: CN(C)c1ccc2c(c1)c(=O)n(-c1ccc(C[C@H](NC(=O)c3c(Cl)cccc3Cl)C(=O)O)cc1)c(=O)n2C [Carotegrast]
No. CFU (×10^3)/mL ± SD, 1 hr ([1]; single dose, peripheral blood, 1 hr post dose (TABLE 20)): 0.58 ± 0.19 (×10^3)/mL
No. CFU (×10^3)/mL ± SD, 4 hr ([1]; single dose, peripheral blood, 4 hr post dose (TABLE 20)): 0.18 ± 0.08 (×10^3)/mL
No. CFU (×10^3)/mL ± SD, 8 hr ([1]; single dose, peripheral blood, 8 hr post dose (TABLE 20)): 0.19 ± 0.09 (×10^3)/mL

IC50 (VLA-4 (a4b1); as listed in TABLE 11, read-out: sVCAM IC50): 1.36 nM
IC50 (VLA-4 (a4b1); [2]): 1.36 nM
SMILES: COCCOCCOCCOCCOCCOCCOCCOCCOCCOCCOCCOCCOCCOCCOCCOCCOCCOCCOCCOCCOCCOCCOCCOCCSCc1cc(OC)c(-c2ccc(C[C@H](NC(=O)[C@@H]3CCCN3S(=O)(=O)c3cc(Cl)cc(Cl)c3)C(=O)O)cc2)c(OC)c1 [Example 7, (2S)-2-[[(2S)-1-(3,5-dichlorophenyl)sulfonylpyrrolidine-2-carbonyl]amino]-3-[4-[2,6-dimethoxy-4-[2-[2-[2-[2-[2-[2-[2-[2-[2-[2-[2-[2-[2-[2-[2-[2-[2-[2-[2-[2-[2-[2-[2-(2-thiomethylethoxy)ethoxy]ethoxy]ethoxy]ethoxy]ethoxy]ethoxy]ethoxy]ethoxy]ethoxy]ethoxy]ethoxy]ethoxy]ethoxy]ethoxy]ethoxy]ethoxy]ethoxy]ethoxy]ethoxy]ethoxy]ethoxy]ethoxy]ethoxymethyl]phenyl]phenyl]propanoic acid]
No. CFU (x10^3)/mL ± SD, 2 hr ([1]; single dose, peripheral blood, 2 hr post dose (TABLE 11)): 2.53 ± 1.11 (x10^3)/mL
No. CFU (x10^3)/mL ± SD, 4 hr ([1]; single dose, peripheral blood, 4 hr post dose (TABLE 11)): 3.91 ± 1.44 (x10^3)/mL
No. CFU (x10^3)/mL ± SD, 6 hr ([1]; single dose, peripheral blood, 6 hr post dose (TABLE 11)): 2.96 ± 1.15 (x10^3)/mL
No. CFU (x10^3)/mL ± SD, 24 hr ([1]; single dose, peripheral blood, 24 hr post dose (TABLE 11)): 0.15 ± 0.05 (x10^3)/mL

IC50 (VLA-4 (a4b1); [6]): 3.83 nM
IC50 (VLA-4 (a4b1); [2]): 3.83 nM
SMILES: COc1cc(CO)cc(OC)c1-c1ccc(C[C@H](NC(=O)c2c(Cl)cc(C(=O)O)cc2Cl)C(=O)O)cc1 [Example C2]
No. CFU (×10^3)/mL ± SD, 0.25 hr [1, 3]: 4.08 ± 1.66 (×10^3)/mL
No. CFU (×10^3)/mL ± SD, 2 hr [1, 4]: 2.87 ± 1.47 (×10^3)/mL
No. CFU (×10^3)/mL ± SD, 4 hr [1, 5]: 0.53 ± 0.30 (×10^3)/mL

IC50 (VLA-4 (a4b1); [6]): 1.35 nM
IC50 (VLA-4 (a4b1); [2]): 1.35 nM
SMILES: CCOCc1cc(OC)c(-c2ccc(C[C@H](NC(=O)c3c(Cl)cc(C(=O)O)cc3Cl)C(=O)O)cc2)c(OC)c1 [Example C3]
No. CFU (×10^3)/mL ± SD, 0.25 hr [1, 3]: 3.69 ± 0.52 (×10^3)/mL
No. CFU (×10^3)/mL ± SD, 2 hr [1, 4]: 1.58 ± 0.74 (×10^3)/mL
No. CFU (×10^3)/mL ± SD, 4 hr [1, 5]: 0.30 ± 0.11 (×10^3)/mL

IC50 (VLA-4 (a4b1); [6]): 1.69 nM
IC50 (VLA-4 (a4b1); as listed in TABLE 17, read-out: sVCAM IC50): 1.69 nM
IC50 (VLA-4 (a4b1); [2]): 1.69 nM
SMILES: COCCOCCOCCOCc1cc(OC)c(-c2ccc(C[C@H](NC(=O)c3c(Cl)cc(C(=O)O)cc3Cl)C(=O)O)cc2)c(OC)c1 [Example C4]
time to which HSPC mobilization is extended after a single dose [1]: ≤ 2 h
No. CFU (×10^3)/mL ± SD, 2 hr ([1]; alone or in combination with Plerixafor and tGroβ, peripheral blood, 2 hr (TABLE 17)): 2.91 ± 0.83 (×10^3)/mL
No. CFU (×10^3)/mL ± SD, 4 hr ([1]; alone or in combination with Plerixafor and tGroβ, peripheral blood, 4 hr (TABLE 17)): 0.53 ± 0.16 (×10^3)/mL
No. CFU (×10^3)/mL ± SD, 6 hr ([1]; alone or in combination with Plerixafor and tGroβ, peripheral blood, 6 hr (TABLE 17)): 0.28 ± 0.09 (×10^3)/mL
No. CFU (×10^3)/mL ± SD, 0.25 hr [1, 3]: 4.73 ± 1.31 (×10^3)/mL
No. CFU (×10^3)/mL ± SD, 2 hr [1, 4]: 1.47 ± 0.51 (×10^3)/mL
No. CFU (×10^3)/mL ± SD, 4 hr [1, 5]: 0.49 ± 0.12 (×10^3)/mL

— patent publication US20250381168A1, “VLA4 INHIBITORS AND USES THEREOF” (Washington University, priority 2022, published 2025)
